In PubChem BioAssay AID1963981 (Molecular Pharmacology Branch, DTP, NCI, 2024):

tested on: 354836-022-R-J1-PDC multicell spheroid viability; test: Anticancer human tumor 354836-022-R-J1-PDC patient-derived head and neck squamous cell carcinoma cell line growth inhibition [PI3K]; conditions: second compound 0.01 µM; first compound 1 µM; stronger effect = lower value
Method in brief: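 We assembled tumor spheroids that included a stromal compartment of HUVEC and MSCs, then exposed them to targeted agents alone and together with PI3K pathway inhibitors. Concentration series descended by half-log from clinically achievable Cmax levels. Viability served as the endpoint.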
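Note: spheroids exposed to agents for seven days before the viability read.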

Row | Compound | viability, T/C
1 | C#Cc1c(F)ccc2cc(O)cc(-c3ncc4c(N5CC6CCC(C5)N6)nc(OCC56CCCN5CC(F)C6)nc4c3F)c12 (stereo unspecified) + COc1c(OCCCN2CCOCC2)ccc2c3n(c(=NC(=O)c4cnc(N)nc4)nc12)CCN3 | 116%
2 | CC(Cn1ccc(-c2ccc(C#N)c(Cl)c2)n1)NC(=O)c1cc(C(C)O)[nH]n1 (stereo unspecified) + CC(Nc1ccc2c(c1)OCCn1cc(N3C(=O)OCC3C(F)F)nc1-2)C(N)=O | 81.8%

same assay, conditions: second compound 0.01 µM; first compound 3.16 µM; stronger effect = lower value

Row | Compound | viability, T/C
3 | C#Cc1c(F)ccc2cc(O)cc(-c3ncc4c(N5CC6CCC(C5)N6)nc(OCC56CCCN5CC(F)C6)nc4c3F)c12 (stereo unspecified) + COc1c(OCCCN2CCOCC2)ccc2c3n(c(=NC(=O)c4cnc(N)nc4)nc12)CCN3 | 92%
4 | CC(Cn1ccc(-c2ccc(C#N)c(Cl)c2)n1)NC(=O)c1cc(C(C)O)[nH]n1 (stereo unspecified) + CC(Nc1ccc2c(c1)OCCn1cc(N3C(=O)OCC3C(F)F)nc1-2)C(N)=O | 88.3%

same assay, conditions: second compound 0.01 µM; first compound 10 µM; stronger effect = lower value

Row | Compound | viability, T/C
5 | C#Cc1c(F)ccc2cc(O)cc(-c3ncc4c(N5CC6CCC(C5)N6)nc(OCC56CCCN5CC(F)C6)nc4c3F)c12 (stereo unspecified) + COc1c(OCCCN2CCOCC2)ccc2c3n(c(=NC(=O)c4cnc(N)nc4)nc12)CCN3 | 101%
6 | CC(Cn1ccc(-c2ccc(C#N)c(Cl)c2)n1)NC(=O)c1cc(C(C)O)[nH]n1 (stereo unspecified) + CC(Nc1ccc2c(c1)OCCn1cc(N3C(=O)OCC3C(F)F)nc1-2)C(N)=O | 74.8%

same assay, conditions: second compound 0.0316 µM; first compound 0.0316 µM; stronger effect = lower value

Row | Compound | viability, T/C
7 | C#Cc1c(F)ccc2cc(O)cc(-c3ncc4c(N5CC6CCC(C5)N6)nc(OCC56CCCN5CC(F)C6)nc4c3F)c12 (stereo unspecified) + COc1c(OCCCN2CCOCC2)ccc2c3n(c(=NC(=O)c4cnc(N)nc4)nc12)CCN3 | 79.4%
8 | CC(Cn1ccc(-c2ccc(C#N)c(Cl)c2)n1)NC(=O)c1cc(C(C)O)[nH]n1 (stereo unspecified) + CC(Nc1ccc2c(c1)OCCn1cc(N3C(=O)OCC3C(F)F)nc1-2)C(N)=O | 78.9%
9 | CNC(=O)c1ccc(N2C(=S)N(c3ccc(C#N)c(C(F)(F)F)c3)C(=O)C2(C)C)cc1F + Cc1nc(NC(=O)N2CCCC2C(N)=O)sc1-c1ccnc(C(C)(C)C(F)(F)F)c1 | 108%
10 | Cn1ncc(Cl)c1-c1cc(C(=O)NC(CN)Cc2cccc(F)c2)sc1Cl (stereo unspecified) + CC(Nc1ncnc2nc[nH]c12)c1cc2cccc(Cl)c2c(=O)n1-c1ccccc1 | 74.6%

same assay, conditions: second compound 0.0316 µM; first compound 0.1 µM; stronger effect = lower value

Row | Compound | viability, T/C
11 | C#Cc1c(F)ccc2cc(O)cc(-c3ncc4c(N5CC6CCC(C5)N6)nc(OCC56CCCN5CC(F)C6)nc4c3F)c12 (stereo unspecified) + COc1c(OCCCN2CCOCC2)ccc2c3n(c(=NC(=O)c4cnc(N)nc4)nc12)CCN3 | 84.2%
12 | CC(Cn1ccc(-c2ccc(C#N)c(Cl)c2)n1)NC(=O)c1cc(C(C)O)[nH]n1 (stereo unspecified) + CC(Nc1ccc2c(c1)OCCn1cc(N3C(=O)OCC3C(F)F)nc1-2)C(N)=O | 87.6%
13 | CNC(=O)c1ccc(N2C(=S)N(c3ccc(C#N)c(C(F)(F)F)c3)C(=O)C2(C)C)cc1F + Cc1nc(NC(=O)N2CCCC2C(N)=O)sc1-c1ccnc(C(C)(C)C(F)(F)F)c1 | 92.4%
14 | Cn1ncc(Cl)c1-c1cc(C(=O)NC(CN)Cc2cccc(F)c2)sc1Cl (stereo unspecified) + CC(Nc1ncnc2nc[nH]c12)c1cc2cccc(Cl)c2c(=O)n1-c1ccccc1 | 48.9%

same assay, conditions: second compound 0.0316 µM; first compound 0.316 µM; stronger effect = lower value

Row | Compound | viability, T/C
15 | C#Cc1c(F)ccc2cc(O)cc(-c3ncc4c(N5CC6CCC(C5)N6)nc(OCC56CCCN5CC(F)C6)nc4c3F)c12 (stereo unspecified) + COc1c(OCCCN2CCOCC2)ccc2c3n(c(=NC(=O)c4cnc(N)nc4)nc12)CCN3 | 96.4%
16 | CC(Cn1ccc(-c2ccc(C#N)c(Cl)c2)n1)NC(=O)c1cc(C(C)O)[nH]n1 (stereo unspecified) + CC(Nc1ccc2c(c1)OCCn1cc(N3C(=O)OCC3C(F)F)nc1-2)C(N)=O | 92.5%
17 | CNC(=O)c1ccc(N2C(=S)N(c3ccc(C#N)c(C(F)(F)F)c3)C(=O)C2(C)C)cc1F + Cc1nc(NC(=O)N2CCCC2C(N)=O)sc1-c1ccnc(C(C)(C)C(F)(F)F)c1 | 100%
18 | Cn1ncc(Cl)c1-c1cc(C(=O)NC(CN)Cc2cccc(F)c2)sc1Cl (stereo unspecified) + CC(Nc1ncnc2nc[nH]c12)c1cc2cccc(Cl)c2c(=O)n1-c1ccccc1 | 31.8%

same assay, conditions: second compound 0.0316 µM; first compound 1 µM; stronger effect = lower value

Row | Compound | viability, T/C
19 | C#Cc1c(F)ccc2cc(O)cc(-c3ncc4c(N5CC6CCC(C5)N6)nc(OCC56CCCN5CC(F)C6)nc4c3F)c12 (stereo unspecified) + COc1c(OCCCN2CCOCC2)ccc2c3n(c(=NC(=O)c4cnc(N)nc4)nc12)CCN3 | 89.7%
20 | CC(Cn1ccc(-c2ccc(C#N)c(Cl)c2)n1)NC(=O)c1cc(C(C)O)[nH]n1 (stereo unspecified) + CC(Nc1ccc2c(c1)OCCn1cc(N3C(=O)OCC3C(F)F)nc1-2)C(N)=O | 97.4%
21 | CNC(=O)c1ccc(N2C(=S)N(c3ccc(C#N)c(C(F)(F)F)c3)C(=O)C2(C)C)cc1F + Cc1nc(NC(=O)N2CCCC2C(N)=O)sc1-c1ccnc(C(C)(C)C(F)(F)F)c1 | 96%
